According to PMC11401861, “Assessment of the in vitro anti-diabetic activity with molecular dynamic simulations of limonoids isolated from Adalia lemon peels” (Scientific Reports, 2024):
Converted amounts (≈) assume the structure as drawn.

Key:
[1] = DPPH radical scavenging activity; settings: for IC50 against DPPH radical: Fig. 2a
Description: (§1) All in vitro biological activities of the limonoids-rich extract and the isolated compounds were assayed in triplicate at three different concentrations (50, 100, and 200 µg/mL).
The 1,1-Diphenyl-2-picryl-hydrazyl (DPPH) radical scavenging activity was evaluated using the method described by Rahman et al.[32]. Ascorbic acid was used as a positive control at the same concentrations. The inhibition percentage of the DPPH free radical was calculated. The median inhibitory concentration (IC50) of each tested sample was determined by plotting a curve using a series of sample concentrations against the percentage of DPPH inhibition.

[2] = Nitric oxide (NO) radical scavenging activity (Griess Illosvory reagent); settings: for IC50 against NO radical: Fig. 2a
Description: as §1
The nitric oxide (NO) radical scavenging activity was estimated by the reaction with Griess Illosvory reagent based on the method proposed by Chakraborthy[34]. The NO scavenging capacities of the samples were compared with that of ascorbic acid. The percent inhibition of the NO radical was calculated. The IC50 of each tested sample was determined by plotting a curve using a series of sample concentrations against the percent of NO inhibition.

[3] = Total antioxidant capacity (TAC), method of Prieto et al.
Description: as §1
The method proposed by Prieto et al.[30] was used to determine the total antioxidant capacity (TAC) expressed as mg […] equivalent per gram weight, using ascorbic acid at the same concentrations as a standard.

[4] = ABTS radical scavenging assay; settings: for IC50 against ABTS radical: Fig. 2a
Description: as §1
The ABTS scavenging capacities of the samples were compared with that of ascorbic acid. The percent inhibition of the ABTS radical was calculated. The IC50 of each tested sample was determined by plotting a curve using a series of sample concentrations against the percent of ABTS inhibition.

[5] = Iron reducing power (IRP), method of Oyaizu
α-glucosidase [6] = test: α-Glucosidase enzyme inhibition assay; assay type: biochemical; settings: for IC50 against α-glucosidase: Fig. 2b
Description: as §1
(§2) The IC50 of each tested sample was determined by plotting a curve using a series of sample concentrations against the percent of enzyme inhibition.

α-glucosidase [7] = test: SDS-PAGE electrophoretic α-glucosidase pattern; assay type: biochemical; settings: 100 µg/mL
Description: (§3) The relative mobility (Rf), band quantity (Qty) and band percent (B%) of the electrophoretically detected isoenzyme types on the PAGE plate were determined using the Quantity One software program (version 4.6.2). The equation proposed by Nei and Li[39] was used to calculate the percentages of similarity index (SI%) and physiological difference (Diff%).

α-amylase [8] = test: α-Amylase enzyme inhibition assay; assay type: biochemical; settings: for IC50 against α-amylase: Fig. 2b
Description: as §1, §2

α-amylase [9] = test: Native electrophoretic α-amylase isoenzyme pattern (PAGE); assay type: biochemical; settings: standard enzyme treated with 100 µg/mL
Description: as §3

Row | SMILES | DPPH Inhibition (%) ([1]; sample concentration 50 µg/mL) | DPPH Inhibition (%) ([1]; sample concentration 100 µg/mL) | DPPH Inhibition (%) ([1]; sample concentration 200 µg/mL) | NO Inhibition (%) ([2]; sample concentration 50 µg/mL) | NO Inhibition (%) ([2]; sample concentration 100 µg/mL) | NO Inhibition (%) ([2]; sample concentration 200 µg/mL) | TAC ([3]; sample concentration 50 µg/mL) [mg gallic acid/g] | TAC ([3]; sample concentration 100 µg/mL) [mg gallic acid/g] | TAC ([3]; sample concentration 200 µg/mL) [mg gallic acid/g] | ABTS Inhibition (%) ([4]; sample concentration 50 µg/mL) | ABTS Inhibition (%) ([4]; sample concentration 100 µg/mL) | ABTS Inhibition (%) ([4]; sample concentration 200 µg/mL) | IRP ([5]; sample concentration 50 µg/mL) [µg/mL] | IRP ([5]; sample concentration 100 µg/mL) [µg/mL] | IRP ([5]; sample concentration 200 µg/mL) [µg/mL] | α-Glucosidase Inhibition (%) (α-glucosidase [6]; sample concentration 50 µg/mL) | α-Glucosidase Inhibition (%) (α-glucosidase [6]; sample concentration 100 µg/mL) | α-Glucosidase Inhibition (%) (α-glucosidase [6]; sample concentration 200 µg/mL) | α-Amylase Inhibition (%) (α-amylase [8]; sample concentration 50 µg/mL) | α-Amylase Inhibition (%) (α-amylase [8]; sample concentration 100 µg/mL) | also measured
1 | O=C1O[C@H]([C@@H](O)CO)C(O)=C1O [Ascorbic Acid, ascorbic acid, reference compound] | 26.17 ± 0.07 | 45.43 ± 0.11 | 80.87 ± 0.20 | 21.02 ± 0.07 | 36.27 ± 0.11 | 64.55 ± 0.20 | 30.09 ± 0.08 | 53.56 ± 0.14 | 95.34 ± 0.25 | 24.94 ± 0.08 | 42.64 ± 0.13 | 75.90 ± 0.23 | 23.95 ± 0.07 | 42.64 ± 0.13 | 75.90 ± 0.23 | – | – | – | – | – | IC50 against DPPH radical [1]: 4.74 ± 0.02 µg/mL (≈ 26.9 µM); IC50 against NO radical [2]: 5.17 ± 0.03 µg/mL (≈ 29.4 µM); IC50 against ABTS radical [4]: 4.17 ± 0.02 µg/mL (≈ 23.7 µM)
2 | CC1(C)OC(=O)C=C[C@]2(C)[C@H]3CC[C@@](C)([C@@H](O[C@@H]4O[C@H](CO)[C@@H](O)[C@H](O)[C@H]4O)c4ccoc4)[C@@]4(O[C@@H]4C(=O)O)[C@]3(C)C(=O)C[C@@H]12 [Cpd4, obacunone 17-O-β-D-glucopyranoside] | 23.63 ± 0.06 | 42.06 ± 0.11 | 74.87 ± 0.20 | 18.48 ± 0.06 | 32.90 ± 0.11 | 58.55 ± 0.20 | 27.18 ± 0.07 | 48.37 ± 0.13 | 86.10 ± 0.23 | 22.03 ± 0.07 | 39.20 ± 0.13 | 69.78 ± 0.23 | 22.03 ± 0.07 | 39.20 ± 0.13 | 69.78 ± 0.23 | 14.78 ± 0.07 | 26.30 ± 0.13 | 46.81 ± 0.23 | 18.93 ± 0.07 | 33.69 ± 0.13 | IC50 against DPPH radical [1]: 5.12 ± 0.02 µg/mL (≈ 8.07 µM); IC50 against α-glucosidase (α-glucosidase [6]): 2.46 ± 0.02 µg/mL (≈ 3.88 µM); Diff% (decrease in the quantity of the identified α-glucosidase band) (α-glucosidase [7]): 64.41%; Qty (band quantity) of the α-glucosidase band (α-glucosidase [7]): 6.64; IC50 against NO radical [2]: 5.70 ± 0.03 µg/mL (≈ 8.98 µM); IC50 against α-amylase (α-amylase [8]): 3.61 ± 0.02 µg/mL (≈ 5.69 µM); α-Amylase Inhibition (%) (α-amylase [8]; sample concentration 200 µg/mL): 59.96 ± 0.23%; IC50 against ABTS radical [4]: 4.53 ± 0.02 µg/mL (≈ 7.14 µM); Change in electrophoretic α-amylase isoenzyme pattern (α-amylase [9]): severe abnormalities; Diff% (physiological difference) of electrophoretic α-amylase pattern from the standard enzyme (α-amylase [9]): 100.00%; SI% (similarity index) of electrophoretic α-amylase pattern to the standard enzyme (α-amylase [9]): 0.00%
3 | CC1(C)OC2CC(=O)OCC23C1CC(=O)C1(C)C3CC[C@@](C)([C@@H](O[C@@H]2O[C@H](CO)[C@@H](O)[C@H](O)[C@H]2O)c2ccoc2)C12OC2C(=O)O (stereo partly drawn) [Cpd5, limonin 17-O-β-D-glucopyranoside] | 23.87 ± 0.06 | 42.48 ± 0.11 | 75.62 ± 0.20 | 18.72 ± 0.06 | 33.32 ± 0.11 | 59.30 ± 0.20 | 27.45 ± 0.07 | 48.86 ± 0.13 | 86.96 ± 0.23 | 22.30 ± 0.07 | 39.69 ± 0.13 | 70.65 ± 0.23 | 22.30 ± 0.07 | 39.69 ± 0.13 | 70.65 ± 0.23 | 15.05 ± 0.07 | 26.78 ± 0.13 | 47.67 ± 0.23 | 19.20 ± 0.07 | 34.17 ± 0.13 | IC50 against DPPH radical [1]: 5.07 ± 0.02 µg/mL (≈ 7.79 µM); IC50 against α-glucosidase (α-glucosidase [6]): 2.42 ± 0.02 µg/mL (≈ 3.72 µM); Diff% (decrease in the quantity of the identified α-glucosidase band) (α-glucosidase [7]): 69.27%; Qty (band quantity) of the α-glucosidase band (α-glucosidase [7]): 5.73; IC50 against NO radical [2]: 5.62 ± 0.03 µg/mL (≈ 8.64 µM); IC50 against α-amylase (α-amylase [8]): 3.56 ± 0.02 µg/mL (≈ 5.47 µM); α-Amylase Inhibition (%) (α-amylase [8]; sample concentration 200 µg/mL): 60.82 ± 0.23%; IC50 against ABTS radical [4]: 4.48 ± 0.02 µg/mL (≈ 6.89 µM); Change in electrophoretic α-amylase isoenzyme pattern (α-amylase [9]): severe abnormalities; Diff% (physiological difference) of electrophoretic α-amylase pattern from the standard enzyme (α-amylase [9]): 100.00%; SI% (similarity index) of electrophoretic α-amylase pattern to the standard enzyme (α-amylase [9]): 0.00%
4 | CC1(C)O[C@H]2CC(=O)OC[C@]23[C@H]2CC[C@@]4(C)[C@H](c5ccoc5)OC(=O)[C@H]5O[C@]54[C@]2(C)C(=O)C[C@@H]13 [Cpd1, limonin] | 11.10 ± 0.02 | 19.77 ± 0.04 | 35.18 ± 0.07 | 5.95 ± 0.02 | 10.60 ± 0.04 | 18.87 ± 0.07 | 12.77 ± 0.03 | 22.73 ± 0.04 | 40.46 ± 0.08 | 7.62 ± 0.03 | 13.56 ± 0.04 | 24.14 ± 0.08 | 7.62 ± 0.03 | 13.56 ± 0.04 | 24.14 ± 0.08 | 1.37 ± 0.03 | 2.44 ± 0.04 | 4.34 ± 0.08 | 4.52 ± 0.03 | 8.05 ± 0.04 | Diff% (decrease in the quantity of the identified α-glucosidase band) (α-glucosidase [7]): 3.83%; Qty (band quantity) of the α-glucosidase band (α-glucosidase [7]): 17.95; α-Amylase Inhibition (%) (α-amylase [8]; sample concentration 200 µg/mL): 14.32 ± 0.08%; Change in electrophoretic α-amylase isoenzyme pattern (α-amylase [9]): no qualitative or quantitative variations; Diff% (physiological difference) of electrophoretic α-amylase pattern from the standard enzyme (α-amylase [9]): 0.00%; SI% (similarity index) of electrophoretic α-amylase pattern to the standard enzyme (α-amylase [9]): 100.00%
5 | CC(=O)O[C@H]1CC(=O)OC(C)(C)[C@@H]2CC(=O)[C@]3(C)[C@H](CC[C@@]4(C)[C@H](c5ccoc5)OC(=O)[C@H]5O[C@]543)[C@@]12C [Cpd3, nomilin] | 11.22 ± 0.02 | 19.96 ± 0.04 | 35.53 ± 0.07 | 6.07 ± 0.02 | 10.80 ± 0.04 | 19.22 ± 0.07 | 12.90 ± 0.03 | 22.96 ± 0.05 | 40.87 ± 0.08 | 7.75 ± 0.03 | 13.79 ± 0.05 | 24.55 ± 0.08 | 7.75 ± 0.03 | 13.79 ± 0.05 | 24.55 ± 0.08 | 1.50 ± 0.03 | 2.67 ± 0.05 | 4.75 ± 0.08 | 4.65 ± 0.03 | 8.27 ± 0.05 | Diff% (decrease in the quantity of the identified α-glucosidase band) (α-glucosidase [7]): 7.51%; Qty (band quantity) of the α-glucosidase band (α-glucosidase [7]): 17.26; α-Amylase Inhibition (%) (α-amylase [8]; sample concentration 200 µg/mL): 14.73 ± 0.08%; Change in electrophoretic α-amylase isoenzyme pattern (α-amylase [9]): no qualitative or quantitative variations; Diff% (physiological difference) of electrophoretic α-amylase pattern from the standard enzyme (α-amylase [9]): 0.00%; SI% (similarity index) of electrophoretic α-amylase pattern to the standard enzyme (α-amylase [9]): 100.00%
6 | C[C@H]1O[C@H](O[C@H]2[C@H](O)[C@@H](O)[C@@H](O[C@H]3[C@H](O)[C@@H](O)C(O)O[C@@H]3CO)O[C@@H]2CO)[C@H](O)[C@@H](O)[C@@H]1N[C@H]1C=C(CO)[C@@H](O)[C@H](O)[C@H]1O (some centres unmarked) [Acarbose, acarbose, reference compound] | – | – | – | – | – | – | – | – | – | – | – | – | – | – | – | 17.69 ± 0.08 | 29.73 ± 0.13 | 52.92 ± 0.23 | 21.84 ± 0.08 | 37.12 ± 0.13 | Change in electrophoretic α-glucosidase pattern (α-glucosidase [7]): complete denaturation; α-Amylase Inhibition (%) (α-amylase [8]; sample concentration 200 µg/mL): 66.07 ± 0.23%; Change in electrophoretic α-amylase isoenzyme pattern (α-amylase [9]): complete denaturation
